Among the data in patent EP1298213A1, “Variants of an Erwinia-type creatinase” (Roche Diagnostics GmbH, priority 2001, dated 2003) are Km values, retold here.

Assay [1] deals with creatinase from Alcalingenes. Conditions: reported in patent US 5,451,520; substrate creatine taken from context (b8); cited from earlier work.
Assay [2] relates to Erwinia sp. DSM 97-934 creatinase variant CTsd7 (F59W, N130D, M203V, I278T, F395L), SEQ ID NO: 22. As to the kind of experiment: Km determination, coupled creatinase activity assay. Conditions: creatine substrate at 90, 45, 22.5, 11.3, 5.6 and 2.8 mM; 0.1 M potassium phosphate buffer pH 7.8; 25°C. The class given is biochemical. Here is the method:
(§1) The activity assay for creatinase and its variants was performed by using creatine as substrate and a coupled enzymatic reaction according to Guder, W. G., et al., J Clin Chem Clin Biochem 24 (1986) 889-902.
(§2) The reaction mixture was set up by combining the following reagents:
(§3) The assay for creatinase was carried out at 25°C and at the wavelength of 546 nm for 10 min. ΔE was calculated from the measurement points of 6 to 10 min.
(§4) For KM determination, creatinase activity was determined according to the assay procedure described in Example 3 using six different concentrations of creatine substrate: 90 mM, 45 mM, 22.5 mM, 11.3 mM, 5.6 mM and 2.8 mM.

Assay [3] has as its system Erwinia sp. DSM 97-934 creatinase variant CTqc2 (F59W, N130D, I278T), SEQ ID NO: 18. The assay is described as above. The class given is biochemical. Conditions: creatine substrate at 90, 45, 22.5, 11.3, 5.6 and 2.8 mM; 0.1 M potassium phosphate buffer pH 7.8; 25°C. The procedure: as §1, §2, §3, §4
For assay [4], the system named is Erwinia sp. DSM 97-934 creatinase variant CT1m24 (N130D, I278T), SEQ ID NO: 10. The assay is described as above. Conditions: creatine substrate at 90, 45, 22.5, 11.3, 5.6 and 2.8 mM; 0.1 M potassium phosphate buffer pH 7.8; 25°C. It counts as biochemical. Here is the method:
as §1, §2, §3, §4

Assay [5] has as its system Erwinia sp. DSM 97-934 creatinase, wild type, SEQ ID NO:2. The description is as above. The note with it: creatine substrate at 90, 45, 22.5, 11.3, 5.6 and 2.8 mM; 0.1 M potassium phosphate buffer pH 7.8; 25°C. It counts as biochemical. Here is the method: as §1, §2, §3, §4
The test system of assay [6] is Erwinia sp. DSM 97-934 creatinase variant CTsd2 (N130D, M203V, I278T, F395L), SEQ ID NO: 20. Described as above. It counts as biochemical. The note with it: creatine substrate at 90, 45, 22.5, 11.3, 5.6 and 2.8 mM; 0.1 M potassium phosphate buffer pH 7.8; 25°C. Here is the method: as §1, §2, §3, §4
In assay [7] the test system is Erwinia sp. DSM 97-934 creatinase variant CT2m28 (N130D, I304L, I278T), SEQ ID NO: 16. Described as above. It counts as biochemical. The note with it: creatine substrate at 90, 45, 22.5, 11.3, 5.6 and 2.8 mM; 0.1 M potassium phosphate buffer pH 7.8; 25°C. The procedure:
as §1, §2, §3, §4

In assay [8] the test system is Erwinia sp. DSM 97-934 creatinase variant CT2m10 (N130D, I278T, F395L), SEQ ID NO: 14. Described as above. The class given is biochemical. The note with it: creatine substrate at 90, 45, 22.5, 11.3, 5.6 and 2.8 mM; 0.1 M potassium phosphate buffer pH 7.8; 25°C. Here is the method:
as §1, §2, §3, §4

Assay [9] has as its system Erwinia sp. DSM 97-934 creatinase variant CT2m9 (N130D, M203V, I278T), SEQ ID NO: 12. The description is as above. The note with it: creatine substrate at 90, 45, 22.5, 11.3, 5.6 and 2.8 mM; 0.1 M potassium phosphate buffer pH 7.8; 25°C. It counts as biochemical. Here is the method:
as §1, §2, §3, §4

A word on the Km: it is the concentration of substrate that gives half-maximal velocity. On to `CN(CC(=O)O)C(=N)N` [creatine], for which the Km in assay [1] is 13 mM; in assay [2], 2 mM; in assay [3] it was 6.6 mM; in [4] it was 8.2 mM; in assay [5] it was 4.3 mM; in [6], 2.1 mM. In addition, the results for the Km in assay [7], in assay [8] and in assay [9] were 4 mM, 3.4 mM and 6.3 mM, respectively.
